Laboratory results as given in ChEMBL document CHEMBL1212811, “Chemical phylogenetics of histone deacetylases” (Nat Chem Biol, 2010).
Structures can show the parent of a compound that is named as a salt. The source made the active and inactive calls. Peptide text beside a SMILES is read from it. * marks the point of attachment. AMC = Cc1cc(=O)oc2cc(N*)ccc12; Tfa = O=C(C(F)(F)F)*

Key:
[1] = biological target: Histone deacetylase 4 (Homo sapiens) (UniProt P56524); experiment: Activity of HDAC4 at 10 uM
Histone deacetylase 4 (Homo sapiens), sequence (P56524 whole entry): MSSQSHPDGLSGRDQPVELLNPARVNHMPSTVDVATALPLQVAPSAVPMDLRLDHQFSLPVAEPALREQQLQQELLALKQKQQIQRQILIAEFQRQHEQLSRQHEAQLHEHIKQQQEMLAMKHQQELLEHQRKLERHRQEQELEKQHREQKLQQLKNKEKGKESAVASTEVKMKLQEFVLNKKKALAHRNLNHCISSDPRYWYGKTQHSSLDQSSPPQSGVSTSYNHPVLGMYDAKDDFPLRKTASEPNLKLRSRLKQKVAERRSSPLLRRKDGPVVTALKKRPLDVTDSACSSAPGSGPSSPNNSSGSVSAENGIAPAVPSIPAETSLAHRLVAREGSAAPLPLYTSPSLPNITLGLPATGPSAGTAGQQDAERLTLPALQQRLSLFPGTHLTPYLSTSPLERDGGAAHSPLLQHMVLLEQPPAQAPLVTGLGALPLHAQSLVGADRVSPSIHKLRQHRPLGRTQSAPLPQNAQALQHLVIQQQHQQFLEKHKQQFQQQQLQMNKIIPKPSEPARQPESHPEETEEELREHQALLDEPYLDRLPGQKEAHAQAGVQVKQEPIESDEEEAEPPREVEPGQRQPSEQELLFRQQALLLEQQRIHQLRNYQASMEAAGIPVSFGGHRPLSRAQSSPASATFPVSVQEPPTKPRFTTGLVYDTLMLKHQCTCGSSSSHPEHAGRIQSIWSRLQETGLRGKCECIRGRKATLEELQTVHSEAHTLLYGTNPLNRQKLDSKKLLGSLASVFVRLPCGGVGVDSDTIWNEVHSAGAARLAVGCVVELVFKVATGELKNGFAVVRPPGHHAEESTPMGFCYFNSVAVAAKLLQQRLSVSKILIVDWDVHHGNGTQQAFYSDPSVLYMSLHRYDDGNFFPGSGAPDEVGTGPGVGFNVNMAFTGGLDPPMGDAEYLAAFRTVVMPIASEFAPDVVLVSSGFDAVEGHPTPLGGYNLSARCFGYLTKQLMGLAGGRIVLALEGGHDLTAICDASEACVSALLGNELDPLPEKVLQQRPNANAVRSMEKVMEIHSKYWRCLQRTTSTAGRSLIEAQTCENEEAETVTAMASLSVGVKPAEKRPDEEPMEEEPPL

[2] = biological target: T1, Histone deacetylase 8 (Homo sapiens) (UniProt Q9BY41); experiment: Activity of HDAC8 at 10 uM
T1 sequence (whole entry): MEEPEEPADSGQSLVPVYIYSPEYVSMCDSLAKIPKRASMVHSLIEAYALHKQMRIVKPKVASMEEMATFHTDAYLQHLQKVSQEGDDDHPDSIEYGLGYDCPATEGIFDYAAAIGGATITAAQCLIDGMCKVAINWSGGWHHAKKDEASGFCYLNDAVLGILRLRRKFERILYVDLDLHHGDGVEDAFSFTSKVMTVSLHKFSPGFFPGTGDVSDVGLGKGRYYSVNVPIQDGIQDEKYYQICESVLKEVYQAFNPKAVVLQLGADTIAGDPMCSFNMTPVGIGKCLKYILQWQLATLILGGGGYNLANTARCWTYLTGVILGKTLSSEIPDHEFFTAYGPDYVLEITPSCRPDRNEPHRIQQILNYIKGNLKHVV

[3] = biological target: Histone deacetylase 5 (Homo sapiens) (UniProt Q9UQL6); experiment: Activity of HDAC5 at 10 uM
Histone deacetylase 5 (Homo sapiens), sequence (Q9UQL6 whole entry): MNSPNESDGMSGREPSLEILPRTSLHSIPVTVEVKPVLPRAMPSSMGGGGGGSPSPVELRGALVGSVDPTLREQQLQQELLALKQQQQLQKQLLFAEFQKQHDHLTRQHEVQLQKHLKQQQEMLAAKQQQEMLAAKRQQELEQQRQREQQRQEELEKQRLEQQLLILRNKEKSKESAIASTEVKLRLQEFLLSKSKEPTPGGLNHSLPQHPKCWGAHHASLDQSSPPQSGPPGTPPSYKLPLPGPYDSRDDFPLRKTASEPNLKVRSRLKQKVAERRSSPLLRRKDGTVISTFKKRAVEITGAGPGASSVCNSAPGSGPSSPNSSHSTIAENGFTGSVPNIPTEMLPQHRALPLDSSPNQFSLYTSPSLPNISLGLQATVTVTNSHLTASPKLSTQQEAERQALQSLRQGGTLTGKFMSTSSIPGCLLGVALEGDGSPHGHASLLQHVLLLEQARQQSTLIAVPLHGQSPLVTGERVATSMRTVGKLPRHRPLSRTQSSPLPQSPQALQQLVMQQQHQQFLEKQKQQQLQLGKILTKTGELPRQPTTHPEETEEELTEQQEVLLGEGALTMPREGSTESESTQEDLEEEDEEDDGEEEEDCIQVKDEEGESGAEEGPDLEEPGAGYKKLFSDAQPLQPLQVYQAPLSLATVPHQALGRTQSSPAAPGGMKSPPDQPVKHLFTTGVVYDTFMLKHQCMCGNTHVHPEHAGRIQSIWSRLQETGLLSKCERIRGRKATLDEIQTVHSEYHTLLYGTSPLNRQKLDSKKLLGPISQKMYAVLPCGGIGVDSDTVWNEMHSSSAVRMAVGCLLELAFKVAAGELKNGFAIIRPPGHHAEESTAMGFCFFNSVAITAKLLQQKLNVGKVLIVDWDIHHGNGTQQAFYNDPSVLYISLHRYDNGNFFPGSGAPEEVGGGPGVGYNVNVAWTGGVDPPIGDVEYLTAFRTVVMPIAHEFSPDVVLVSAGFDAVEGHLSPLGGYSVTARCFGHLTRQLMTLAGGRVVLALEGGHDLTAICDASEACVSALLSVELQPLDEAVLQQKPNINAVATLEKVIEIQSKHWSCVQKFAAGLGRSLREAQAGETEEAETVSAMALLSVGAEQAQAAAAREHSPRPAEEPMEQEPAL

[4] = biological target: T2, Histone deacetylase 7 (Homo sapiens) (UniProt Q8WUI4); experiment: Activity of HDAC7 at 10 uM
T2 sequence (whole entry): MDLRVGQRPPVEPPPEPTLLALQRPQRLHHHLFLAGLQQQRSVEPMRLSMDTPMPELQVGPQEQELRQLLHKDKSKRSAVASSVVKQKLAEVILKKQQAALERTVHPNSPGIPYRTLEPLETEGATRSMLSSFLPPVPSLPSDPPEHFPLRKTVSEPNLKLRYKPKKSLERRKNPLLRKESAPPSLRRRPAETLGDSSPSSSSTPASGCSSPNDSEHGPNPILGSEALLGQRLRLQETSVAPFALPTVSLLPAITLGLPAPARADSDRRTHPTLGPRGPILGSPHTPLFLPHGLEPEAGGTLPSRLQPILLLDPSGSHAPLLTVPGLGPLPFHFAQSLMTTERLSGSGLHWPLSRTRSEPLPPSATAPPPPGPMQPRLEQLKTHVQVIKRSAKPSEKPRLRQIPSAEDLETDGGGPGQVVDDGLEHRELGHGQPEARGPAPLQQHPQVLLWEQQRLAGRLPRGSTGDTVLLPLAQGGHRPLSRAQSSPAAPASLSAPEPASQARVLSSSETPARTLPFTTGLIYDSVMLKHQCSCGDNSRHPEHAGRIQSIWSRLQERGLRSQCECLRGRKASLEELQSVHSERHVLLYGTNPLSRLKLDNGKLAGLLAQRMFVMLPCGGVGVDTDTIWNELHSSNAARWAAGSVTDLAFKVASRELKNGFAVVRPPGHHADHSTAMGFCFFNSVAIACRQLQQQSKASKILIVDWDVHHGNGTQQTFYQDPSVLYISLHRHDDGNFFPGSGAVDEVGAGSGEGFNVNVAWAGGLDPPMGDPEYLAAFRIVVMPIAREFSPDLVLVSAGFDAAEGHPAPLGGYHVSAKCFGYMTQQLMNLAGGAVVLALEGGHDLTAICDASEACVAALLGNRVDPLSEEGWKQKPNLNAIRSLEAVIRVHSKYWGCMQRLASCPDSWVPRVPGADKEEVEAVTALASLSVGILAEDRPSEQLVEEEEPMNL

[5] = biological target: Histone deacetylase 9 (Homo sapiens) (UniProt Q9UKV0); experiment: Activity of HDAC9 at 10 uM
Histone deacetylase 9 (Homo sapiens), sequence (Q9UKV0 whole entry): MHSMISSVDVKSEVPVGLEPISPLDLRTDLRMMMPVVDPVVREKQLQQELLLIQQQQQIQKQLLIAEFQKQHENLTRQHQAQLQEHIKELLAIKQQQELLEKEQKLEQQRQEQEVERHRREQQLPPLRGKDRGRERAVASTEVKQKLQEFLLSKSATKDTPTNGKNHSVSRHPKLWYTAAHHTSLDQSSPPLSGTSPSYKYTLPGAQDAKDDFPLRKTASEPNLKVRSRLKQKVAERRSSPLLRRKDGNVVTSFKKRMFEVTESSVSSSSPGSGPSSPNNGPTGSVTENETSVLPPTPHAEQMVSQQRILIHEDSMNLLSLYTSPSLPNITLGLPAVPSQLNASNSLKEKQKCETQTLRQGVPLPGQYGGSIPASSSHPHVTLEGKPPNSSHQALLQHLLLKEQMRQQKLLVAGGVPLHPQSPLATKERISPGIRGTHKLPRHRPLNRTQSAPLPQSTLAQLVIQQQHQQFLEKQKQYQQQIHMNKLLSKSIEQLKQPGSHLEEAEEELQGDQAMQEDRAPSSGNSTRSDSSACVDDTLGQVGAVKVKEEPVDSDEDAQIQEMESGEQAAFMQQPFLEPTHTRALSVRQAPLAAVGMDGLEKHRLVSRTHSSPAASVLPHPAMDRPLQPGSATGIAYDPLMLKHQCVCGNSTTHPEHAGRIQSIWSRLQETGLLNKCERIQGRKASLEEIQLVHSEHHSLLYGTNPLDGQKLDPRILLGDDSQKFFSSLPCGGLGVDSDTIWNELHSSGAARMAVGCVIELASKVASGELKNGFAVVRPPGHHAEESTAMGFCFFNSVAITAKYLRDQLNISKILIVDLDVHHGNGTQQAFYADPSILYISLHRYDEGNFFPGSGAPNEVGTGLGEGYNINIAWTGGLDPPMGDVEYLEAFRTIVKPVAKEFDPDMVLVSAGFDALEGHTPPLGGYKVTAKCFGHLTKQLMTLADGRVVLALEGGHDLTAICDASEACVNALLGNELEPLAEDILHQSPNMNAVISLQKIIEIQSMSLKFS

[6] = biological target: T3, Protein deacetylase HDAC6 (Homo sapiens) (UniProt Q9UBN7); experiment: Inhibition of HDAC6 in human Jurkat cells assessed as hyperacetylation of alpha-tubulin after 24 hrs by immunoblot method; assay type: cell-based
T3 sequence (whole entry): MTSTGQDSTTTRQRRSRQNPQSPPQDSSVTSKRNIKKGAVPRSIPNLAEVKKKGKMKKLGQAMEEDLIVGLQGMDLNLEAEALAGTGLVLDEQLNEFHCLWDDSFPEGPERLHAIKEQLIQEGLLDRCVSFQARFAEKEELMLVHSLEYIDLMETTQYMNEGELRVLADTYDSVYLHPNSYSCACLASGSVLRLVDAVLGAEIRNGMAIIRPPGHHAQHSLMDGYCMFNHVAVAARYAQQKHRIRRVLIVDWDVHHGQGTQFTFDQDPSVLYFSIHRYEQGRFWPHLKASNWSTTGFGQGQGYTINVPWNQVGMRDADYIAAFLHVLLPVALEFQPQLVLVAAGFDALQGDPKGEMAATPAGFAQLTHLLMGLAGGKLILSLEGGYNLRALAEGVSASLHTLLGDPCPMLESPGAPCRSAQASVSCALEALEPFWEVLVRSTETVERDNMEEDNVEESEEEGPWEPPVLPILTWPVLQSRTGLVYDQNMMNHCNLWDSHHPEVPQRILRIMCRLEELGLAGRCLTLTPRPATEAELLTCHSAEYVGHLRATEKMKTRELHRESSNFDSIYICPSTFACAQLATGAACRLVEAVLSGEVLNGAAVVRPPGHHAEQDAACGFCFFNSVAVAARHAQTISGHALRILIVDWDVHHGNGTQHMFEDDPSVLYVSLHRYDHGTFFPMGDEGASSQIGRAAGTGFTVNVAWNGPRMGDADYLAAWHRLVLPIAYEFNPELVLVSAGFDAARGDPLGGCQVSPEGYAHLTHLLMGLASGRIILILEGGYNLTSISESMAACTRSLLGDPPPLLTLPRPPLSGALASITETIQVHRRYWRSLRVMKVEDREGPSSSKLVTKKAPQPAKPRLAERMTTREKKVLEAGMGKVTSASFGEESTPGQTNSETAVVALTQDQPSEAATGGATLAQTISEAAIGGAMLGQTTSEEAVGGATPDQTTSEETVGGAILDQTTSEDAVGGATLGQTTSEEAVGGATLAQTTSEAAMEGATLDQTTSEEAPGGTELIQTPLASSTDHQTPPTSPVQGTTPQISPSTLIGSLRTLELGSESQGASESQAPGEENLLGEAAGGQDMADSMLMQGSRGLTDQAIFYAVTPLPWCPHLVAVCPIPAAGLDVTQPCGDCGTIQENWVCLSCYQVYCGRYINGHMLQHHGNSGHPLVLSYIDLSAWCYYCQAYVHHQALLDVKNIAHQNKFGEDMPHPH

CC(=O)N[C@@H](CC(C)C)C(=O)NCC(=O)N[C@@H](CCCCNC(=O)C(F)(F)F)C(=O)Nc1ccc2c(C)cc(=O)oc2c1 (Ac-Leu-Gly-Lys(Tfa)-{AMC})
active: Activity [1] | Activity [2] | Activity [3] | Activity [4] | Activity [5]

O=C(/C=C/c1ccc(C(=O)N/N=C/c2ccc(O)c(O)c2O)cc1)NO
active: inhibition [6] Dose-dependent effect
